Measured values reported in US6548072B1, “Skin care compositions containing an organic extract of chick pea” (Chesebrough-Pond's USA Co., division of Conopco, Inc., priority 1997, dated 2003).

Key:
[1] = system: piglet epidermal cells; test: Piglet skin organ culture, 3H-thymidine incorporation into the epidermis; type: cell-based, pig
Text: Pig skin is morphologically and biochemically similar to human skin and is therefore used commonly for testing the effects of materials for, human topical use. Fresh shaved skin from piglets was obtained from the local slaughter house, washed with Dove® Soap and dermatomed at 200μ thickness to obtain the top epidermis and dermal layer. Uniform punch biopsies of the dermatomed pig skin was taken using a 7 mm punch. The biopsies were washed in medium containing high antibiotic/antimycotic mix(Kanamycin and penicillin and streptomycin from Gibco) and incubated for 3 days in high glucose DMEM medium containing hydrocortisone, L-glutamine, antibiotic and antimycotic in the absence of serum in transwell plates, 3 biopsies per well. The medium was fed from the bottom of the transwell so that the epidermal side of the biopsies was in contact with air. On the 3rd day, the medium was changed to fresh medium, and the biopsies were exposed to the various concentrations of various actives in 1 μl of DMSO, as indicated in Table 4. 3 days later, medium was changed, actives readded and the biopsies were labeled with 10 μCi of 3H thymidine per well. After washing the biopsies in PBS, the epidermis was split from the dermis by incubating the biopsies for 24 hrs in 2 M sodium bromide solution with shaking. The epidermis was peeled off from the dermis using a tweezer and dissolved in1 ml of 0.5N NaOH with overnight incubation at 60 ° C. 200 μl of the dissolved epidermis was used for scintillation counting to determine the amount of ^3H thymidine incorporation into the epidermis. The data was calculated as mean cpm for at least 4 replicates, and was also calculated as % of control biopsies which received no actives.

[2] = system: ZR75 cells; test: 3H-thymidine incorporation (DNA synthesis / proliferation) in ZR75 cells, test for estrogen-like activity; type: cell-based, human; details: for ZR 75 DNA synthesis (% of Control): Experiment 1; for % of Control / cpm ± SD: 10 nM
Text: The incorporation of ^3H-thymidine by cultured cells was used as an assay of cell proliferation (ZR75 or keratinocyte). Thymidine is one of four deoxynucleosides which are the monomeric units of DNA. Prior to cell division of a somatic cell, the complete genome of the cell undergoing cell division is replicated. This involves large scale DNA synthesis by the cell and enables both daughter cells to receive identical copies of the genetic material. When ^3H-thymidine is included in the culture media of cells which are synthesizing DNA in preparation for cell division then the labeled thymidine is incorporated into the newly synthesized DNA. The extent of incorporation of ^3H-thymidine into a population of cells is proportional to the rate of DNA synthesis. by this population of cells and therefore an indication of their cellular proliferation.
ZR75 cell line is a ductal breast carcinoma cell line, originally isolated from malignant mammary epithelium of a person (Engel et al., Human breast carcinoma cells in continuous culture: A review., Cancer Res., 38: 4327-4339, 1978) This cell line contains receptors for estrogen, progesterone and other steroid hormones, but responds through an increase in proliferation only to estrogen. The cell line contains high affinity estrogen-specific receptors. Therefore, this cell line is used for testing estrogen-like activity (Markiewicz et al., In vitro bioassays of non-steroidal phytoestrogens, J. Steroid Biochem. Molec. Biol., 45: 399-405, 1993).
1. ZR75 cells (from American Type Culture Collection, Rockville, Md.) were grown in RPMT1640 media (from Gibco Life Technologies) with 10% fetal bovine serum (FBS), 100 units penicillin per ml and 100 units of streptomycin per ml. […] The. cells were seeded at a density of one million per 75 cm2 flask. For the experiment, the cells were seeded in 24 well plates at 100,000 cells per ml per well.
2. After growing for 24 hours, the media was removed, the cells were washed with PBS and 1 ml of RPMI 1640 without serum (but with streptomycin and penicillin) was added. Stock solutions of chick pea extract in dimethyl sulfoxide. (DMSO) and estradiol in water were prepared. […] After another 24 hours, […] of [methyl-3H] thymidine was added to each well. The media was removed after 24 hours. The cells were washed once in PBS, the PBS was removed completely and the cells were left on ice to incubate with 1 ml per well of10% TCA (trichlioroacetic acid) for 30 minutes. The plates were washed 3 times with 5% TCA to remove all traces of thymidine which wasn't incorporated into the cells. 500 μl of 0.1M sodium hydroxide was added to each well and the plates were incubated at room temperature for at least 30 minutes. 250 μl of each sample was transferred to scintillation vials and after adding 5 ml of counting fluid, the vials were counted for 5 minutes each on a setting for tritium. […] Values were expressed as mean of triplicate wells ± standard deviation.

COc1ccc(-c2coc3cc(O)ccc3c2=O)cc1 [Formononetin, formononetin]
% of Control ([1]; Experiment 1, 1 μg/ml): 126 ± 33.2 % of Control
cpm ± SD ([1]; Experiment 1, 1 μg/ml): 4770 ± 1260 cpm
% of Control ([1]; Experiment 1, 10 μg/ml): 174 ± 76.1 % of Control
cpm ± SD ([1]; Experiment 1, 10 μg/ml): 6608 ± 2886 cpm

C[C@]12CC[C@@H]3c4ccc(O)cc4CC[C@H]3[C@@H]1CC[C@@H]2O [Estradiol, estradiol]
ZR 75 DNA synthesis (% of Control) ([2]; 0.01 nM): 117 ± 19.7 % of Control
ZR 75 DNA synthesis (% of Control) ([2]; 0.1 nM): 106 ± 16.3 % of Control
ZR 75 DNA synthesis (% of Control) ([2]; 1.0 nM): 162 ± 3.2 % of Control
ZR 75 DNA synthesis (% of Control) ([2]; 10.0 nM): 267 ± 15.1 % of Control
ZR 75 DNA synthesis (% of Control) ([2]; 100 nM): 203 ± 51.2 % of Control
ZR 75 DNA synthesis (% of Control) ([2]; 1000 nM): 178 ± 20.1 % of Control
% of Control ([2]; Experiment 2): 839 ± 27 % of Control
cpm ± SD ([2]; Experiment 2): 122254 ± 3940 cpm
% of Control ([2]; Experiment 3): 211 ± 7.6 % of Control
cpm ± SD ([2]; Experiment 3): 30158 ± 1087 cpm
concentration that increased DNA synthesis of ZR75 cells ([2]; Table 1): ≥ 1 nM
% of Control ([1]; Experiment 1, 1 nM): 58.9 ± 24.4 % of Control
cpm ± SD ([1]; Experiment 1, 1 nM): 2690 ± 1113 cpm
% of Control ([1]; Experiment 1, 10 nM): 113 ± 24 % of Control
cpm ± SD ([1]; Experiment 1, 10 nM): 5190 ± 1096 cpm
% of Control ([1]; Experiment 1, 100 nM): 39.0 ± 32.6 % of Control
cpm ± SD ([1]; Experiment 1, 100 nM): 1757 ± 1492 cpm
% of Control ([1]; Experiment 2, 1 nM): 196 ± 67.7 % of Control
cpm ± SD ([1]; Experiment 2, 1 nM): 2273 ± 783 cpm
% of Control ([1]; Experiment 2, 10 nM): 330 ± 101 % of Control
cpm ± SD ([1]; Experiment 2, 10 nM): 3817 ± 1175 cpm
% of Control ([1]; Experiment 2, 100 nM): 241 ± 65 % of Control
cpm ± SD ([1]; Experiment 2, 100 nM): 2785 ± 751 cpm

O=c1c(-c2ccc(O)cc2)coc2cc(O)ccc12 [Daidzein, daidzein]
proliferation of piglet epidermal cells, in words [1]: more effective than the natural hormone estradiol
% of Control ([1]; Experiment 1, 1 μg/ml): 227 ± 24.4 % of Control
cpm ± SD ([1]; Experiment 1, 1 μg/ml): 8599 ± 927 cpm
% of Control ([1]; Experiment 1, 10 μg/ml): 292 ± 76.5 % of Control
cpm ± SD ([1]; Experiment 1, 10 μg/ml): 11065 ± 2901 cpm
